Assay results taken from publication PMC10544015 (Journal of Medicinal Chemistry, 2023).
Bridge positions count the residues as written; N and C are the ends. Square brackets hold non-standard residues; d marks the D form. Triazole bridges read from a SMILES are 1,4-linked. Peptide text beside a SMILES is read from it. Lys(N3) = [N-]=[N+]=NCCCC[C@H](N)C(=O)O; Pra = C#CC[C@H](N)C(=O)O; Ahx = NCCCCCC(=O)O

Assays:
B16-BL6 cells = assay: LDH cytotoxicity assay in B16-BL6 cells; type: cell-based, mouse; details: peptides 100 to 6.25 µM, Pbn 2.5 mM, HOS solution
H9c2 cells = assay: ATP release assay in Panx1-lacking H9c2 cells (specificity); type: cell-based, rat; details: peptides 100 or 12.5 µM, Pbn 2.5 mM, 30 min HOS
Text: The cardiomyoblast cell line (H9c2) was chosen to assess the specificity of the stapled ^10Panx1 analogues. Panx1 mRNA was not found in undifferentiated H9c2 cells or after differentiation into cardiomyocyte-like cells, while it was readily detected in our positive controls (kidney and liver samples; Supporting Information, Figure S5B). The absence of Panx1 protein expression was confirmed by Western blot analysis in both undifferentiated and differentiated H9c2 cells (Supporting Information, Figure S5C) as well as by immunostaining on H9c2 cells (Supporting Information, Figure S5D). […] Of note, the low concentration of ATP release in H9c2 cells compared to B16-BL6 cells (47 vs 513 nM, respectively, see dotted line in Supporting Information, Figure S5E) cannot be attributed to low cellular content of the metabolite because a high level of ATP was found in the supernatant (1170 nM) when cells were lysed with Triton X-100.
(§1) Triplicates were performed for each independent experiment.

Panx1 channels [1] = biological target: T1, Panx1 channels (Mus musculus, UniProt Q9JIP4); assay: HOS-induced ATP release assay in B16-BL6 cells; details: for inhibition at 100 µM: B16-BL6, read-out: % ATP release inhibition at 100µM (in B16-BL6 cells)
T1 sequence (Q9JIP4 whole entry): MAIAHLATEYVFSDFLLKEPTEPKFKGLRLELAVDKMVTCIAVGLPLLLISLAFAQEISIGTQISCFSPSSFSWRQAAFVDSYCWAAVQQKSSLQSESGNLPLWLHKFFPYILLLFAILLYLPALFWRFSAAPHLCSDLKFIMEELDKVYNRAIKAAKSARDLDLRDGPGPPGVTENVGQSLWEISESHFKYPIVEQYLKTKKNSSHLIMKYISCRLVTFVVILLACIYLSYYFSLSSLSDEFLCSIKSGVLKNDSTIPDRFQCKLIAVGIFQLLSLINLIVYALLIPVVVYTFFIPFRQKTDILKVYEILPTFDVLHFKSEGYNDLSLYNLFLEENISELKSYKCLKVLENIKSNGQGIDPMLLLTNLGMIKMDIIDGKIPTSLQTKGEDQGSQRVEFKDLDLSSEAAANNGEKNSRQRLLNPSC

Panx1 channels [2] = biological target: T1, Panx1 channels; assay: Yo-Pro-1 dye uptake assay in B16-BL6 cells; type: cell-based; details: for decrease of HOS-induced Yo-Pro-1 uptake: 100 µM, 30 min HOS
Method: The ability of the two previously identified lead compounds, SBL-PX1–42 and SBL-PX1-44, to affect the cellular uptake of ions and small molecules through Panx1 channels was evaluated in Yo-Pro-1 uptake assays. Yo-Pro-1 is a small fluorescent dye of 629 Da able to diffuse into cells through open Panx1 channels and emit green fluorescence when binding to nucleic acids in the cells.[66],[67] A representative example showing Yo-Pro-1 uptake over time is given in the Supporting Information (Figure S4). As expected, HOS induced a rapid Yo-Pro-1 uptake, which continued to increase gradually over time. […] While a small nonsignificant inhibition (14%) of Yo-Pro-1 uptake was observed when cells were exposed to 100 μM of ^10Panx1, the same concentration of the SBL-PX1-42 or SBL-PX1-44 analogues decreased Yo-Pro-1 uptake by 26 and 27%, respectively (Figure 3E). […] Among other possibilities, the reduced efficacy of the peptidomimetics in Yo-Pro-1 uptake assays, as compared to ATP release assays, may be attributed to the difference in size between ATP and Yo-Pro-1 or to the different repartition of charges in the two molecules.
B16-BL6 cells were plated on 96-well plates and grown until confluency. […] Cells were then incubated in the HOS solution containing the aforementioned compounds. Yo-Pro-1 (5 μM, Life Technologies) was added to the cells, and fluorescence was continuously recorded for 30 min with FDSS/μCELL Functional Drug Screening System (Hamamatsu Photonics). Yo-Pro-1 uptake in each condition was expressed as a percentage of HOS-induced Yo-Pro-1 uptake. […] Triplicates were performed for each independent experiment.

Panx1 channels [3] = biological target: T2, Panx1 channels (Homo sapiens, UniProt Q96RD7); assay: HOS-induced ATP release assay in EA.hy926 endothelial cells; type: cell-based; details: for inhibition at 100 µM: EA.hy 926, read-out: % ATP release inhibition at 100µM (in EA.hy926 cells)
T2 construct: host or cells: EA.hy926 human endothelial cells
T2 sequence (Q96RD7 whole entry): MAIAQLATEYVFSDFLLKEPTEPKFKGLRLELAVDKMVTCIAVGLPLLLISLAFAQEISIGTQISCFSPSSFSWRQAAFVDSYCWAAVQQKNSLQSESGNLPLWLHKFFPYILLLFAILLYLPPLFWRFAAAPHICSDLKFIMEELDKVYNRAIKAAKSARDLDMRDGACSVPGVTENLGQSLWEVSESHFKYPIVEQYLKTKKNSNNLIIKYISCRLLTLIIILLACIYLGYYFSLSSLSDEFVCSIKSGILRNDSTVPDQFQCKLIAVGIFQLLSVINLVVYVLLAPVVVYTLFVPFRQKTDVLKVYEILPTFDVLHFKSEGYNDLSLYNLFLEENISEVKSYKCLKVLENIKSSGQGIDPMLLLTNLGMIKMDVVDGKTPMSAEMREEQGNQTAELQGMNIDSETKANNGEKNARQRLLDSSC
Method: Similar to B16-BL6 cells, a 2–3-fold enhancement of ATP release from EA.hy926 cells was observed upon HOS stimulation (Figure 7E). However, the absolute levels of ATP release were lower in these endothelial cells (around 300 vs 500–600 nM in B16-BL6 cells). As expected, Pbn reduced HOS-induced ATP release from EA.hy926 cells, albeit by a lower fraction than the one observed in B16-BL6 cells (Figure 7E vs7A). The reason for this different efficacy of Pbn is unknown but may be due to its nonspecific action on other ATP release channels or transporters,[68] of which the expression naturally varies among different cell types. […] The water-soluble double-stapled ^10Panx1 peptidomimetic SBL-PX1-206 reduced HOS-induced ATP release from EA.hy926 cells by about 25% at 12.5 μM. […] Stapled and double-stapled ^10Panx1 analogues were also not cytotoxic when tested at 100 and 12.5 μM in EA.hy926 cells (Supporting Information, Figure S8).
as §1

circular dichroism = details: PBS (10 mM phosphate, 137 mM NaCl, 2.7 mM KCl); pH 7.4; rt °C; 100 uM
[4] = In vitro proteolytic stability in human plasma; type: in vitro ADME
Method: The proteolytic stability of the peptides was determined through in vitro stability assays in human plasma, as previously reported.[31],[89] Briefly, a stock solution of the peptide was prepared at a concentration of 1–2 mm in Milli-Q water and was used for further dilutions. Prior to the actual stability testing, the selectivity of the assay and stability of the working solutions were evaluated in parallel with an assessment of the linearity, accuracy, and precision of the method using three separately prepared calibration curves. The samples were analyzed by RP-HPLC on an Agilent 1200 series gradient HPLC system in combination with an EC HPLC column EC 150/2 NUCLEODUR (C18 HTec, 3 μm length: 150 mm, ID: 2 mm. Macherey-Nagel). The half-lives of the peptides were calculated by interpolating the data based on the obtained calibration curve. Afterward, the log concentrations as a function of time were transferred to a semi-log chart. Metabolites were identified by reanalyzing the samples using LC-MS on the same system previously described.[31]

[5] = Circular dichroism spectroscopy (helicity); type: physicochemical; details: PBS, 20 to 90 °C
Method: Spectra were measured with a JASCO J-715 CD spectropolarimeter equipped with a temperature controller using a 1 mm path length quartz cuvette and a scan rate of […]. The spectra were recorded in the wavelength range of 190–260 nm with a resolution and a bandwidth of 0.5 and 1.0 nm, respectively. The sensitivity and scan rate of the spectrometer were set to 100 mdeg and 50 nm min^–1, respectively. Samples were prepared in phosphate-buffered saline (PBS, 10 mM phosphate, 137 mM sodium chloride, 2.7 mM potassium chloride, pH 7.4, at room temperature) to the final concentration of 100 μM with or without 2,2,2-trifluoroethanol (TFE). CD spectra were averaged over 3–5 scans with the baseline subtracted from analogous conditions as those for the samples and converted to the mean residue ellipticity. Helicity was calculated as previously reported (see the Supporting Information).[52]

[6] = Water solubility (observation); type: physicochemical

SMILES	cytotoxicity (extracellular LDH) (B16-BL6 cells)	inhibition of ATP release in H9c2 cells (H9c2 cells)	reduction of HOS-induced ATP release (Panx1 channels [1]; 2.5 mM, B16-BL6 cells, 30 min HOS) [%]	inhibition of Yo-Pro-1 uptake (Panx1 channels [2]; 2.5 mM, 30 min)	reduction of HOS-induced ATP release from EA.hy926 cells (Panx1 channels [3]; 2.5 mM)	helicity (circular dichroism) [%]	fold longer half-life in human plasma compared to ^10Panx1 [4] [fold]	half-life t1/2 in human plasma ([4]; 37 °C) [h]	thermal stability of α-helical profile (CD at varying temperatures) [5]	inhibition at 100 µM (Panx1 channels [1]) [%]	decrease of HOS-induced Yo-Pro-1 uptake (Panx1 channels [2]) [%]	inhibition at 100 µM (Panx1 channels [3]) [%]	water solubility [6]	only identified metabolite (lysine of solubilizing tail cleaved) present in solution ([4]; after 24 h, human plasma, 37 °C)	reduction of HOS-induced ATP release from EA.hy926 cells (Panx1 channels [3]; 12.5 µM)
CCCN(CCC)S(=O)(=O)c1ccc(C(=O)O)cc1 [Pbn, probenecid, reference compound]	no cytotoxicity	No inhibition	61	final lower level than the basal Tyrode conditions	around 35%	–	–	–	–	–	–	–	–	–	–
CC(=O)N[C@@H](CO)C(=O)N[C@@H](Cc1c[nH]c2ccccc12)C(=O)N[C@@H](CCCNC(=N)N)C(=O)N[C@@H](CCC(N)=O)C(=O)N[C@@H](C)C(=O)N[C@H]1Cc2cn(nn2)CCCC[C@@H](C(=O)N[C@@H](Cc2ccc(O)cc2)C(N)=O)NC(=O)[C@H](CC(=O)O)NC(=O)[C@H](C(C)C)NC(=O)[C@H](Cc2ccccc2)NC1=O [SBL-PX1-42]	no cytotoxicity	–	–	–	–	56	30	1.102 ± 0.00867	high thermal stability	39	26	26	–	–	–
CC(=O)N[C@H]1Cc2cn(nn2)CCCC[C@@H](C(=O)N[C@@H](C)C(=O)N[C@@H](Cc2ccccc2)C(=O)N[C@H](C(=O)N[C@@H](CC(=O)O)C(=O)N[C@@H](CO)C(=O)N[C@@H](Cc2ccc(O)cc2)C(N)=O)C(C)C)NC(=O)[C@H](CCC(N)=O)NC(=O)[C@H](CCCNC(=N)N)NC(=O)[C@H](Cc2c[nH]c3ccccc23)NC1=O [SBL-PX1-44]	no cytotoxicity	–	–	–	–	41	30	1.04 ± 0.0418	–	33	27	41	–	–	–
CC(C)[C@@H]1NC(=O)[C@H](Cc2ccccc2)NC(=O)[C@@H](NC(=O)[C@@H]2CCCCn3cc(nn3)C[C@H](NC(=O)CCCCCNC(=O)[C@@H](N)CCCCN)C(=O)N[C@@H](Cc3c[nH]c4ccccc34)C(=O)N[C@@H](CCCNC(=N)N)C(=O)N[C@@H](CCC(N)=O)C(=O)N2)Cc2cn(nn2)CCCC[C@@H](C(=O)N[C@@H](Cc2ccc(O)cc2)C(N)=O)NC(=O)[C@H](CC(=O)O)NC1=O [SBL-PX1-206] (H-K[Ahx][Pra]WRQ[Lys(N3)][Pra]FVD[Lys(N3)]Y-NH2; triazole 3-7, 8-12 (inferred))	–	–	–	–	–	44	–	–	–	–	–	15	water-soluble	around 80%	about 25%
